Numbers after ± are expanded uncertainties.
Assay: molar heat capacity at constant pressure; xn = mol fraction of the nth substance listed
Conditions: 101 kPa, Liquid, Small sample (50 mg) DSC

## OCCO [1,2-ethanediol] + O
293.15 K, x1 = 0.0312
  molar heat capacity at constant pressure: 88.03 ± 2.2 J/K/mol
293.15 K, x1 = 0.0676
  molar heat capacity at constant pressure: 87.6 ± 2.1 J/K/mol
293.15 K, x1 = 0.1105
  molar heat capacity at constant pressure: 86.7 ± 2.1 J/K/mol
293.15 K, x1 = 0.162
  molar heat capacity at constant pressure: 89.39 ± 2.2 J/K/mol
293.15 K, x1 = 0.2248
  molar heat capacity at constant pressure: 93.61 ± 2.3 J/K/mol
293.15 K, x1 = 0.3031
  molar heat capacity at constant pressure: 98.37 ± 2.4 J/K/mol
293.15 K, x1 = 0.4036
  molar heat capacity at constant pressure: 104.66 ± 2.6 J/K/mol
293.15 K, x1 = 0.537
  molar heat capacity at constant pressure: 114.3 ± 2.8 J/K/mol
293.15 K, x1 = 0.723
  molar heat capacity at constant pressure: 127.9 ± 3.1 J/K/mol
293.15 K, x1 = 1
  molar heat capacity at constant pressure: 147.47 ± 3.6 J/K/mol
303.15 K, x1 = 0.0312
  molar heat capacity at constant pressure: 87.89 ± 2.2 J/K/mol
303.15 K, x1 = 0.0676
  molar heat capacity at constant pressure: 87.81 ± 2.1 J/K/mol
303.15 K, x1 = 0.1105
  molar heat capacity at constant pressure: 87.05 ± 2.1 J/K/mol
303.15 K, x1 = 0.162
  molar heat capacity at constant pressure: 89.67 ± 2.2 J/K/mol
303.15 K, x1 = 0.2248
  molar heat capacity at constant pressure: 94.42 ± 2.3 J/K/mol
303.15 K, x1 = 0.3031
  molar heat capacity at constant pressure: 99.15 ± 2.4 J/K/mol
303.15 K, x1 = 0.4036
  molar heat capacity at constant pressure: 105.99 ± 2.6 J/K/mol
303.15 K, x1 = 0.537
  molar heat capacity at constant pressure: 115.72 ± 2.8 J/K/mol
303.15 K, x1 = 0.723
  molar heat capacity at constant pressure: 129.45 ± 3.2 J/K/mol
303.15 K, x1 = 1
  molar heat capacity at constant pressure: 149.71 ± 3.7 J/K/mol
313.15 K, x1 = 0.0312
  molar heat capacity at constant pressure: 88.36 ± 2.2 J/K/mol
313.15 K, x1 = 0.0676
  molar heat capacity at constant pressure: 88.19 ± 2.2 J/K/mol
313.15 K, x1 = 0.1105
  molar heat capacity at constant pressure: 87.48 ± 2.2 J/K/mol
313.15 K, x1 = 0.162
  molar heat capacity at constant pressure: 90.47 ± 2.2 J/K/mol
313.15 K, x1 = 0.2248
  molar heat capacity at constant pressure: 94.89 ± 2.3 J/K/mol
313.15 K, x1 = 0.3031
  molar heat capacity at constant pressure: 100.31 ± 2.4 J/K/mol
313.15 K, x1 = 0.4036
  molar heat capacity at constant pressure: 108.06 ± 2.6 J/K/mol
313.15 K, x1 = 0.537
  molar heat capacity at constant pressure: 117.68 ± 2.9 J/K/mol
313.15 K, x1 = 0.723
  molar heat capacity at constant pressure: 131.2 ± 3.2 J/K/mol
313.15 K, x1 = 1
  molar heat capacity at constant pressure: 152 ± 3.7 J/K/mol
323.15 K, x1 = 0.0312
  molar heat capacity at constant pressure: 88.63 ± 2.2 J/K/mol
323.15 K, x1 = 0.0676
  molar heat capacity at constant pressure: 88.59 ± 2.2 J/K/mol
323.15 K, x1 = 0.1105
  molar heat capacity at constant pressure: 87.53 ± 2.2 J/K/mol
323.15 K, x1 = 0.162
  molar heat capacity at constant pressure: 91 ± 2.2 J/K/mol
323.15 K, x1 = 0.2248
  molar heat capacity at constant pressure: 95.93 ± 2.3 J/K/mol
323.15 K, x1 = 0.3031
  molar heat capacity at constant pressure: 101.88 ± 2.5 J/K/mol
323.15 K, x1 = 0.4036
  molar heat capacity at constant pressure: 109.53 ± 2.7 J/K/mol
323.15 K, x1 = 0.537
  molar heat capacity at constant pressure: 119.76 ± 2.9 J/K/mol
323.15 K, x1 = 0.723
  molar heat capacity at constant pressure: 133.39 ± 3.3 J/K/mol
323.15 K, x1 = 1
  molar heat capacity at constant pressure: 153.8 ± 3.8 J/K/mol
333.15 K, x1 = 0.0312
  molar heat capacity at constant pressure: 88.8 ± 2.2 J/K/mol
333.15 K, x1 = 0.0676
  molar heat capacity at constant pressure: 88.99 ± 2.2 J/K/mol
333.15 K, x1 = 0.1105
  molar heat capacity at constant pressure: 87.76 ± 2.2 J/K/mol
333.15 K, x1 = 0.162
  molar heat capacity at constant pressure: 91.5 ± 2.2 J/K/mol
333.15 K, x1 = 0.2248
  molar heat capacity at constant pressure: 96.6 ± 2.4 J/K/mol
333.15 K, x1 = 0.3031
  molar heat capacity at constant pressure: 102.38 ± 2.5 J/K/mol
333.15 K, x1 = 0.4036
  molar heat capacity at constant pressure: 111 ± 2.7 J/K/mol
333.15 K, x1 = 0.537
  molar heat capacity at constant pressure: 121.18 ± 3 J/K/mol
333.15 K, x1 = 0.723
  molar heat capacity at constant pressure: 135.38 ± 3.3 J/K/mol
333.15 K, x1 = 1
  molar heat capacity at constant pressure: 156.22 ± 3.8 J/K/mol
343.15 K, x1 = 0.0312
  molar heat capacity at constant pressure: 88.88 ± 2.2 J/K/mol
343.15 K, x1 = 0.0676
  molar heat capacity at constant pressure: 89.1 ± 2.2 J/K/mol
343.15 K, x1 = 0.1105
  molar heat capacity at constant pressure: 88.31 ± 2.2 J/K/mol
343.15 K, x1 = 0.162
  molar heat capacity at constant pressure: 92.56 ± 2.3 J/K/mol
343.15 K, x1 = 0.2248
  molar heat capacity at constant pressure: 97.46 ± 2.4 J/K/mol
343.15 K, x1 = 0.3031
  molar heat capacity at constant pressure: 103.64 ± 2.5 J/K/mol
343.15 K, x1 = 0.4036
  molar heat capacity at constant pressure: 111.93 ± 2.8 J/K/mol
343.15 K, x1 = 0.537
  molar heat capacity at constant pressure: 122.85 ± 3 J/K/mol
343.15 K, x1 = 0.723
  molar heat capacity at constant pressure: 138.08 ± 3.4 J/K/mol
343.15 K, x1 = 1
  molar heat capacity at constant pressure: 159.7 ± 3.9 J/K/mol
353.15 K, x1 = 0.0312
  molar heat capacity at constant pressure: 89.15 ± 2.2 J/K/mol
353.15 K, x1 = 0.0676
  molar heat capacity at constant pressure: 89.47 ± 2.2 J/K/mol
353.15 K, x1 = 0.1105
  molar heat capacity at constant pressure: 88.97 ± 2.2 J/K/mol
353.15 K, x1 = 0.162
  molar heat capacity at constant pressure: 92.31 ± 2.3 J/K/mol
353.15 K, x1 = 0.2248
  molar heat capacity at constant pressure: 98.61 ± 2.4 J/K/mol
353.15 K, x1 = 0.3031
  molar heat capacity at constant pressure: 104.99 ± 2.6 J/K/mol
353.15 K, x1 = 0.4036
  molar heat capacity at constant pressure: 113.83 ± 2.8 J/K/mol
353.15 K, x1 = 0.537
  molar heat capacity at constant pressure: 124.97 ± 3 J/K/mol
353.15 K, x1 = 0.723
  molar heat capacity at constant pressure: 140.57 ± 3.4 J/K/mol
353.15 K, x1 = 1
  molar heat capacity at constant pressure: 161 ± 4 J/K/mol
363.15 K, x1 = 0.0312
  molar heat capacity at constant pressure: 89.25 ± 2.2 J/K/mol
363.15 K, x1 = 0.0676
  molar heat capacity at constant pressure: 89.6 ± 2.2 J/K/mol
363.15 K, x1 = 0.1105
  molar heat capacity at constant pressure: 89.27 ± 2.2 J/K/mol
363.15 K, x1 = 0.162
  molar heat capacity at constant pressure: 93.51 ± 2.3 J/K/mol
363.15 K, x1 = 0.2248
  molar heat capacity at constant pressure: 99.61 ± 2.4 J/K/mol
363.15 K, x1 = 0.3031
  molar heat capacity at constant pressure: 106.52 ± 2.6 J/K/mol
363.15 K, x1 = 0.4036
  molar heat capacity at constant pressure: 115.04 ± 2.8 J/K/mol
363.15 K, x1 = 0.537
  molar heat capacity at constant pressure: 126.81 ± 3.1 J/K/mol
363.15 K, x1 = 0.723
  molar heat capacity at constant pressure: 142.17 ± 3.5 J/K/mol
363.15 K, x1 = 1
  molar heat capacity at constant pressure: 164.98 ± 4 J/K/mol
373.15 K, x1 = 0.1105
  molar heat capacity at constant pressure: 89.52 ± 2.2 J/K/mol
373.15 K, x1 = 0.162
  molar heat capacity at constant pressure: 93.89 ± 2.3 J/K/mol
373.15 K, x1 = 0.2248
  molar heat capacity at constant pressure: 100.23 ± 2.5 J/K/mol
373.15 K, x1 = 0.3031
  molar heat capacity at constant pressure: 107.47 ± 2.6 J/K/mol
373.15 K, x1 = 0.4036
  molar heat capacity at constant pressure: 116.01 ± 2.8 J/K/mol
373.15 K, x1 = 0.537
  molar heat capacity at constant pressure: 128.22 ± 3.1 J/K/mol
373.15 K, x1 = 0.723
  molar heat capacity at constant pressure: 144.36 ± 3.5 J/K/mol
373.15 K, x1 = 1
  molar heat capacity at constant pressure: 168.45 ± 4.1 J/K/mol

From the NIST ThermoML archive (doi:10.1021/je020140j)
